Reference: article PMC7433010, “Exploration of multi‐target effects of 3‐benzoyl‐5‐hydroxychromen‐2‐one in Alzheimer’s disease cell and mouse models” (Aging Cell, 2020)

How the values were obtained:
[1] = tested on: STZ‐induced hyperglycemic 3 × Tg‐AD mice; test: Y‐maze task in STZ‐treated 3 × Tg‐AD mice; format: in vivo, mouse; settings: day 26; 40 mg/kg i.p.; STZ 53%, – STZ 63%
Procedure: Mice harboring APPSwe, PS1M146V, and […] transgenes (3×Tg-AD) (Oddo et al., 2003) were purchased from the Jackson Laboratory (004807; Bar Harbor, ME, USA). Six-month-old male homozygous 3×Tg-AD mice were group housed at 20–25°C and 60% relative humidity under a daily 12-h light/12-h dark cycle, with assess to food and water ad libitum. Mice were randomly divided into 3 groups: – streptozocin (STZ), STZ, and STZ/LM-031 (n = 10 per group). STZ-induced hyperglycemia was used to accelerate the development of AD phenotype (Chen et al., 2014). […] Mouse body weight was measured and blood glucose level was measured on days 1, 8, 15, 22, and 29 using a blood glucose meter (Bioland Technology, Taipei, Taiwan). […]
A Y-maze composed of three equally spaced arms (40 cm long, 30 cm high, and 15 cm wide) was used to assess spontaneous alternation behavior. On day 26, each mouse was placed in one of the arm compartments and was allowed to move freely for 8 min; the number of entries and the sequence of arms entered were recorded. Spatial working memory was assessed through the spontaneous alternation performances of a Y-maze exploration as described (Maurice et al., 1994). […] The percent of spontaneous alternation behavior was calculated as the ratio of actual alternation to possible alternations (total arm entries – 2) × 100.

AKT = test: Western blot of AKT in ∆K280 TauRD‐DsRed SH‐SY5Y cells; format: cell-based, human
Procedure: Total proteins from ∆K280 TauRD-DsRed SH-SY5Y cells were obtained using a RIPA buffer containing 50 mM Tris-HCl (pH8.0), 150 mM NaCl, 2 mM EDTA (pH8.0), 50 mM NaF, 0.1% SDS, 0.5% sodium deoxycholate, 1% NP40, and a protease inhibitor cocktail (Sigma-Aldrich). After sonication and sitting on ice for 20 min, the lysates were centrifuged at 14,000 × g for 30 min at 4°C. Protein concentrations were determined using a protein assay kit (Bio-Rad, Hercules, CA, USA), with albumin as a standard. Total proteins (20 µg) were electrophoresed on 10% or 12% SDS-polyacrylamide gel and transferred onto polyvinylidene difluoride (PVDF) membranes (Sigma-Aldrich) through reverse electrophoresis. […] Subsequently, immune complexes were detected using a horseradish peroxidase-conjugated goat anti-mouse or goat anti-rabbit IgG antibody (1:5000; GeneTex, Irvive, CA, USA) and a chemiluminescent substrate (Millipore).
Figure S4. ΔK280 TauRD-DsRed SH-SY5Y cells. […] On day 9, neurite outgrowth and caspase 3 activity were measured. In addition, expression of HSPB1, NRF2, and CREB pathways were assessed. (b) Relative AKT, pAKT, ERK, and pERK protein levels analyzed through immunoblotting. […]

NeuN = test: Immunohistochemistry of NeuN in hippocampus of STZ‐treated 3 × Tg‐AD mice; format: in vivo, mouse; settings: – STZ 100%
Procedure: Mice harboring APPSwe, PS1M146V, and […] transgenes (3×Tg-AD) (Oddo et al., 2003) were purchased from the Jackson Laboratory (004807; Bar Harbor, ME, USA). Six-month-old male homozygous 3×Tg-AD mice were group housed at 20–25°C and 60% relative humidity under a daily 12-h light/12-h dark cycle, with assess to food and water ad libitum. Mice were randomly divided into 3 groups: – streptozocin (STZ), STZ, and STZ/LM-031 (n = 10 per group). STZ-induced hyperglycemia was used to accelerate the development of AD phenotype (Chen et al., 2014). Briefly, the mice were fasted for 12 h each day prior to intraperitoneal (i.p.) injection of STZ ([…]; Sigma-Aldrich) or vehicle (0.1 M sodium citrate pH4.5) for 4 times (days 2, 3, 9, and 10) (Chen et al., 2019). Mouse body weight was measured and blood glucose level was measured on days 1, 8, 15, 22, and 29 using a blood glucose meter (Bioland Technology, Taipei, Taiwan). LM-031 (40 mg/kg) or vehicle (DMSO:Cremophor EL:0.9% saline = 1:2:7) was intraperitoneally injected every day for 22 days from days 15 to 36. All animal procedures were ethically approved by the Institutional Animal Care and Use Committee of National Taiwan Normal University, Taipei, Taiwan (Permit Number: 103002) and were conducted in compliance with the ARRIVE (Animal Research: Reporting In Vivo Experiments) guidelines.
Mouse brains were removed, postfixed in 4% paraformaldehyde overnight, and cryopreserved in 30% sucrose solution at 4°C. Series of coronal brain sections (30 µm) were cut in a cryostat (Leica RM2125 RTS, Leica, Wetzlar, Germany). Heat-induced antigen retrieval for immunohistochemistry (IHC) was performed using antigen retrieval buffer (pH9.0, Thermo Fisher Scientific) to break methylene bridges and expose antigenic sites, allowing antibodies to bind. […] The sections were then washed and detected by using the UltraVision™ Quanto detection system containing horseradish peroxidase and chromogenic diaminobenzidine substrate (Thermo Fisher Scientific). […]

O=C(c1ccccc1)c1cc2c(O)cccc2oc1=O [LM‐031, 3‐benzoyl‐5‐hydroxychromen‐2‐one]
Y‐maze alternation rate [1]: 72% | AKT level (AKT): not notably affected | NeuN level, CA1 (NeuN; STZ 89%): 96% | NeuN level, dentate gyrus (DG) (NeuN; STZ 90%): 97% | NeuN level, CA3 (NeuN; STZ 91%): 95%
